The target of test [1] is Carbonic anhydrase 7 (Homo sapiens, UniProt P43166).
Description: Inhibition of human recombinant CA7
The species entered for test [2] is Homo sapiens. As to the kind of experiment: Selectivity for human CA7 over human CA2.
The species entered for test [3] is Homo sapiens. As to the kind of experiment: Selectivity for human CA7 over human CA1.
Test [4] is described as follows: Selectivity for human CA7 over murine CA13.

Each structure is given as a SMILES string. Values joined by “and” are separate entries in the source; they are usually repeats but may differ in a detail not shown here. Equal values may be shown once.

Carbonic anhydrase 7, sequence (P43166 whole entry): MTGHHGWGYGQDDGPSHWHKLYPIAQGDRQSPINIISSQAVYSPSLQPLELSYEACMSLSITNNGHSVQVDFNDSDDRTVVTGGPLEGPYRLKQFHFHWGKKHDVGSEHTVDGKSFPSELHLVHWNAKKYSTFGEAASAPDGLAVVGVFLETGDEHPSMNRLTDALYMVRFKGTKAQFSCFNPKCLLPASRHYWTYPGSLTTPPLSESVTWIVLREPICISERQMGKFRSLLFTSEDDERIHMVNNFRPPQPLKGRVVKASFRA

As to `O=S(O)O` [SULFUROUS ACID], the inhibition constant (Ki) (usually the equilibrium dissociation constant of an inhibitor or competing ligand from its target) in test [1] came to 7300 µM. As for `OB(O)c1ccccc1` [PHENYLBORONIC ACID], the figures for the Selectivity ratio in test [2], in test [3] and in test [4] were 2780, 7060 and 343, respectively. Moreover, affinity in test [1] was put at a Ki of 8.3 µM. In test [1], `O=[N+]([O-])O` [NITRIC ACID] showed a Ki of 190 µM. Still for that read-out and setting: for `O=C(O)O` [BICARBONATE] the value was 270 µM and 160 µM; for `N#CO` [CYANATE], 15200 µM. Take `I` [IODIDE]: in test [1], the inhibitory constant (Ki) came to 250 µM. In turn, `S` [HYDROGEN SULFIDE] registered a Ki in test [1] of 1240 µM. Consider `N#CS` [THIOCYANIC ACID], for which, in test [1], the inhibition constant (Ki) stood at 170 µM. For `NS(=O)(=O)O` [SULFAMATE], the Ki in test [1] was determined as 9.5 µM. On the same count and under the same terms, for `F` [FLUORIDE ION] the value was 1240 µM. The same measure, in the same setting: for `Cl` [HYDROCHLORIC ACID] the value was 1840 µM; for `Br` [BROMIDE], 1060 µM. The compound `O=NO` [NITROUS ACID] displayed an inhibition constant (Ki) in test [1] of 1780 µM.

In turn, `O=S(=O)(O)O` [SULFURIC ACID] showed an inhibition constant (Ki) in test [1] of 1380 µM.

The record behind these values is ChEMBL document CHEMBL1148502, “Carbonic anhydrase inhibitors: inhibition of the cytosolic human isozyme VII with anions” (Bioorg Med Chem Lett, 2006).
